Patent publication US8969565B2, “Imidazo[1,2-b]pyridazine-based compounds, compositions comprising them, and methods of their use” (Lexicon Pharmaceuticals, Inc., priority 2012, dated 2015)

Molecular target: T1, AAK1 (Homo sapiens, UniProt Q2M2I8)
T1 construct: HA; expressed in transfected cells; host or cells: HEK293F
Test: P81 filter plate assay
Type: biochemical
Conditions: full-length human AAK1, Mu2 substrate
Description: Compounds were serially diluted into a Labcyte LDV plate (Labcyte, cat#LP-0200) using a Mutiprobe (PerkinElmer) and Biomek FX (Beckman Coulter) so that the highest compound concentration was at 96 μM. Compounds were then pinged (75 nL per well) into a Greiner 384-well reaction plate (Greiner, #781076) using an ECHO 550 Liquid Handler (Labcyte). A total of 12 μl reaction buffer (IMAP buffer containing Tween and DTT, from Molecular Devices) was then added to each well of columns 1 and 13 for the negative controls and 12 μl of 2×AAK1 (0.2 nM full-length human protein, NCBI accession no. NP_055726.2) was added to the remaining wells. Enzyme was then pre-incubated with compound for 10 minutes at RT. Reactions were initiated upon Minitrak (PerkinElmer) addition of 12 μl substrate mix containing 2×Mu2 (0.2 μM, full length human protein), 2× cold ATP (2 μM), and 1.3 μCi of hot ^33P-ATP. Reactions proceeded for one hour at RT. Meanwhile, Millipore 384-well P81 filter plates (Millipore, catalog #MZPHNOW10) were placed on a plate washer (Zoom ZW, from Titertek) and pre-wet with 50 μl 1% phosphoric acid. Kinase reactions were then stopped upon addition of 24 μl of 2% phosphoric acid to each well and the Minitrak was then used to transfer 40 μl from each well into the pre-wet Millipore 384-well P81 filter plates. Reaction mixtures were incubated for 10 minutes at RT in the P81 plates, followed by washing five times with 100 μl/well of 1% phosphoric acid using the Zoom filter washer. The bottom of each filter plate was sealed followed by addition of 20 μl Microscint 40 to each well, sealing the top of the plates with Flashplate cover, and then waiting one hour until reading on the TopCount (PerkinElmer).

T1 sequence (Q2M2I8 1-863 isoform Q2M2I8-2): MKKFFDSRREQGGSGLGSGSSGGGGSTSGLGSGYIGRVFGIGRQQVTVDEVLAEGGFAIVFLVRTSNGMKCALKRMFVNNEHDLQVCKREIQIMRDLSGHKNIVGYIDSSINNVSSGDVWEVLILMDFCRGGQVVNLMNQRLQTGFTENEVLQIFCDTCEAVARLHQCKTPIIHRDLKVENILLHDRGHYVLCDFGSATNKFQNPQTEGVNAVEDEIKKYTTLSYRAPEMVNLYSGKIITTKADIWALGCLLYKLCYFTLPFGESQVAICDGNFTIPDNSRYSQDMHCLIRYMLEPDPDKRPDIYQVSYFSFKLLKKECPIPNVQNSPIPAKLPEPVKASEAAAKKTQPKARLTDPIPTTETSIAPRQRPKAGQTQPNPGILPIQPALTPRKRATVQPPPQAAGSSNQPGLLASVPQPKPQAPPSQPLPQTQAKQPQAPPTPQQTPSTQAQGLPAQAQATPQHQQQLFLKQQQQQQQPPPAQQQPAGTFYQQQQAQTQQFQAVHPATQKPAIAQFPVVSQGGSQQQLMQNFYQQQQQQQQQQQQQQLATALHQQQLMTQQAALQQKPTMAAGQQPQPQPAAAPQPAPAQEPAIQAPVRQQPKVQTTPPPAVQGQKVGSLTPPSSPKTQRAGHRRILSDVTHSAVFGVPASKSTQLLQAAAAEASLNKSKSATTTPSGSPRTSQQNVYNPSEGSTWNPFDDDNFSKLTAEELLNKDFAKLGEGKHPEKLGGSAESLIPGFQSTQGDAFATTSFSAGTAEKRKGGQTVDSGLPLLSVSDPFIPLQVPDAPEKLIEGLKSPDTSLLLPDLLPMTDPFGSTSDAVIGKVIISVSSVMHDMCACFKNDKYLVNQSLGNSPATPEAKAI

SMILES | IC50
CC(=O)c1cnc2ccc(N3CCN(C(=O)C4(N)CCCC4)CC3)nn12 [1-(6-(4-(1-aminocyclopentanecarbonyl)piperazin-1-yl)imidazo[1,2-b]pyridazin-3-yl)ethanone] | ≤ 100 nM
CC(C)(C)C(=O)N1CCN(c2ccc3ncc(-c4ccccc4)n3n2)CC1 [2,2-dimethyl-1-(4-(3-phenylimidazo[1,2-b]pyridazin-6-yl)piperazin-1-yl)propan-1-one] | ≤ 100 nM
O=C(OC1CCOC1)N1CCC[C@H]1CNc1ccc2ncc(-c3ccncc3)n2n1 (stereo partly drawn) [(2S)-tetrahydrofuran-3-yl 2-(((3-(pyridin-4-yl)imidazo[1,2-b]pyridazin-6-yl)amino)methyl)pyrrolidine-1-carboxylate] | ≤ 10 nM
O=C(OC1CCOC1)N1CCC[C@H]1CNc1ccc2ncc(Br)n2n1 (stereo partly drawn) [(2S)-tetrahydrofuran-3-yl 2-(((3-bromoimidazo[1,2-b]pyridazin-6-yl)amino)methyl)pyrrolidine-1-carboxylate] | ≤ 10 nM
OCc1ccc(-c2cnc3ccc(NCCOC4CCCC4)nn23)cc1 [(4-(6-((2-(cyclopentyloxy)ethyl)amino)imidazo[1,2-b]pyridazin-3-yl)phenyl)methanol] | ≤ 10 nM
CC(C)CC(=O)N1CCC[C@H]1CNc1ccc2ncc(-c3ccnc(F)c3)n2n1 [(S)-1-(2-(((3-(2-fluoropyridin-4-yl)imidazo[1,2-b]pyridazin-6-yl)amino)methyl)pyrrolidin-1-yl)-3-methylbutan-1-one] | ≤ 10 nM
CC(C)CC(=O)N1CCC[C@H]1CNc1ccc2ncc(C3=CCCC3)n2n1 [(S)-1-(2-(((3-(cyclopent-1-en-1-yl)imidazo[1,2-b]pyridazin-6-yl)amino)methyl)pyrrolidin-1-yl)-3-methylbutan-1-one] | ≤ 10 nM
CCCC(=O)N1CCC[C@H]1CNc1ccc2ncc(-c3ccncc3)n2n1 [(S)-1-(2-(((3-(pyridin-4-yl)imidazo[1,2-b]pyridazin-6-yl)amino)methyl)pyrrolidin-1-yl)butan-1-one] | ≤ 10 nM
CC(C)(C)CCN1C(=O)CC[C@H]1CNc1ccc2ncc(-c3ccncc3)n2n1 [(S)-1-(3,3-dimethylbutyl)-5-(((3-(pyridin-4-yl)imidazo[1,2-b]pyridazin-6-yl)amino)methyl)pyrrolidin-2-one] | ≤ 10 nM
COc1ncccc1-c1cnc2ccc(N3CC[C@H](O)C3)nn12 [(S)-1-(3-(2-methoxypyridin-3-yl)imidazo[1,2-b]pyridazin-6-yl)pyrrolidin-3-ol] | ≤ 1000 nM
CC(C)C[C@H](N)C(=O)N1CCN(c2ccc3ncc(Br)n3n2)CC1 [(S)-2-amino-1-(4-(3-bromoimidazo[1,2-b]pyridazin-6-yl)piperazin-1-yl)-4-methylpentan-1-one] | ≤ 10 nM
CC(C)C[C@H](N)C(=O)N1CCN(c2ccc3ncc(Cl)n3n2)CC1 [(S)-2-amino-1-(4-(3-chloroimidazo[1,2-b]pyridazin-6-yl)piperazin-1-yl)-4-methylpentan-1-one] | ≤ 100 nM
CC(C)C[C@H](N)C(=O)N1CCN(c2ccc3nccn3n2)CC1 [(S)-2-amino-1-(4-(imidazo[1,2-b]pyridazin-6-yl)piperazin-1-yl)-4-methylpentan-1-one] | ≤ 1000 nM
Cc1cnc2ccc(N3CCN(C(=O)[C@@H](N)C(C)C)CC3)nn12 [(S)-2-amino-3-methyl-1-(4-(3-methylimidazo[1,2-b]pyridazin-6-yl)piperazin-1-yl)butan-1-one] | ≤ 10 nM
Cc1cnc2ccc(N3CCN(C(=O)[C@@H](N)CC(C)C)CC3)nn12 [(S)-2-amino-4-methyl-1-(4-(3-methylimidazo[1,2-b]pyridazin-6-yl)piperazin-1-yl)pentan-1-one] | ≤ 100 nM
CN(C(=O)CC1CC1)[C@H]1CCN(c2ccc3ncc(-c4cccnc4O)n3n2)C1 [(S)-2-cyclopropyl-N-(1-(3-(2-hydroxypyridin-3-yl)imidazo[1,2-b]pyridazin-6-yl)pyrrolidin-3-yl)-N-methylacetamide] | ≤ 10 nM
COCCOC(=O)N(C)[C@H]1CCN(c2ccc3ncc(-c4cccnc4OC)n3n2)C1 [(S)-2-methoxyethyl (1-(3-(2-methoxypyridin-3-yl)imidazo[1,2-b]pyridazin-6-yl)pyrrolidin-3-yl)(methyl)carbamate] | ≤ 100 nM
CN(C(=O)CC(F)(F)F)[C@H]1CCN(c2ccc3ncc(-c4cccnc4O)n3n2)C1 [(S)-3,3,3-trifluoro-N-(1-(3-(2-hydroxypyridin-3-yl)imidazo[1,2-b]pyridazin-6-yl)pyrrolidin-3-yl)-N-methylpropanamide] | ≤ 10 nM

SMILES | IC50
COCCO[C@H]1CCN(c2ccc3ncc(-c4cc(C)cnc4OC)n3n2)C1 [(S)-3-(2-methoxy-5-methylpyridin-3-yl)-6-(3-(2-methoxyethoxy)pyrrolidin-1-yl)imidazo[1,2-b]pyridazine] | ≤ 1000 nM
COCCO[C@H]1CCN(c2ccc3ncc(-c4ccc(C)nc4OC)n3n2)C1 [(S)-3-(2-methoxy-6-methylpyridin-3-yl)-6-(3-(2-methoxyethoxy)pyrrolidin-1-yl)imidazo[1,2-b]pyridazine] | ≤ 100 nM
COCCO[C@H]1CCN(c2ccc3ncc(-c4cccnc4OC)n3n2)C1 [(S)-6-(3-(2-methoxyethoxy)pyrrolidin-1-yl)-3-(2-methoxypyridin-3-yl)imidazo[1,2-b]pyridazine] | ≤ 1000 nM
COCC(=O)N(C)[C@H]1CCN(c2ccc3ncc(-c4cccnc4O)n3n2)C1 [(S)-N-(1-(3-(2-hydroxypyridin-3-yl)imidazo[1,2-b]pyridazin-6-yl)pyrrolidin-3-yl)-2-methoxy-N-methylacetamide] | ≤ 1000 nM
CC(C)CC(=O)N(C)[C@H]1CCN(c2ccc3ncc(-c4cccnc4O)n3n2)C1 [(S)-N-(1-(3-(2-hydroxypyridin-3-yl)imidazo[1,2-b]pyridazin-6-yl)pyrrolidin-3-yl)-N,3-dimethylbutanamide] | ≤ 100 nM
CCCC(=O)N(C)[C@H]1CCN(c2ccc3ncc(-c4cccnc4O)n3n2)C1 [(S)-N-(1-(3-(2-hydroxypyridin-3-yl)imidazo[1,2-b]pyridazin-6-yl)pyrrolidin-3-yl)-N-methylbutyramide] | ≤ 100 nM
CCCC(=O)N(C)[C@H]1CCN(c2ccc3ncc(-c4cccnc4OC)n3n2)C1 [(S)-N-(1-(3-(2-methoxypyridin-3-yl)imidazo[1,2-b]pyridazin-6-yl)pyrrolidin-3-yl)-N-methylbutyramide] | ≤ 100 nM
CCCC(=O)N(C)[C@H]1CCN(c2ccc3ncc(Br)n3n2)C1 [(S)-N-(1-(3-bromoimidazo[1,2-b]pyridazin-6-yl)pyrrolidin-3-yl)-N-methylbutyramide] | ≤ 1000 nM
CN(C(=O)N1CCCC1)[C@H]1CCN(c2ccc3ncc(Br)n3n2)C1 [(S)-N-(1-(3-bromoimidazo[1,2-b]pyridazin-6-yl)pyrrolidin-3-yl)-N-methylpyrrolidine-1-carboxamide] | ≤ 100 nM
CCCC(=O)N(C)[C@H]1CCN(c2ccc3ncc(-c4cccnc4)n3n2)C1 [(S)-N-methyl-N-(1-(3-(pyridin-3-yl)imidazo[1,2-b]pyridazin-6-yl)pyrrolidin-3-yl)butyramide] | ≤ 1000 nM
CCCC(=O)N(C)[C@H]1CCN(c2ccc3ncc(-c4ccncc4)n3n2)C1 [(S)-N-methyl-N-(1-(3-(pyridin-4-yl)imidazo[1,2-b]pyridazin-6-yl)pyrrolidin-3-yl)butyramide] | ≤ 100 nM
CN(C(=O)N1CCCC1)[C@H]1CCN(c2ccc3ncc(-c4ccncc4)n3n2)C1 [(S)-N-methyl-N-(1-(3-(pyridin-4-yl)imidazo[1,2-b]pyridazin-6-yl)pyrrolidin-3-yl)pyrrolidine-1-carboxamide] | ≤ 100 nM
N#Cc1cnc2ccc(NC[C@@H]3CCCN3C(=O)OC3CCCC3)nn12 [(S)-cyclopentyl 2-(((3-cyanoimidazo[1,2-b]pyridazin-6-yl)amino)methyl)pyrrolidine-1-carboxylate] | ≤ 10 nM
O=C(OCC1CC1)N1CCC[C@H]1CNc1ccc2ncc(-c3ccncc3)n2n1 [(S)-cyclopropylmethyl 2-(((3-(pyridin-4-yl)imidazo[1,2-b]pyridazin-6-yl)amino)methyl)pyrrolidine-1-carboxylate] | ≤ 10 nM
O=C(OCC1CC1)N1CCC[C@H]1CNc1ccc2ncc(Br)n2n1 [(S)-cyclopropylmethyl 2-(((3-bromoimidazo[1,2-b]pyridazin-6-yl)amino)methyl)pyrrolidine-1-carboxylate] | ≤ 10 nM
CC(C)OC(=O)N1CCC[C@H]1COc1ccc2ncc(-c3cccnc3O)n2n1 [(S)-isopropyl 2-(((3-(2-hydroxypyridin-3-yl)imidazo[1,2-b]pyridazin-6-yl)oxy)methyl)pyrrolidine-1-carboxylate] | ≤ 100 nM
COc1ncccc1-c1cnc2ccc(OC[C@@H]3CCCN3C(=O)OC(C)C)nn12 [(S)-isopropyl 2-(((3-(2-methoxypyridin-3-yl)imidazo[1,2-b]pyridazin-6-yl)oxy)methyl)pyrrolidine-1-carboxylate] | ≤ 100 nM
Cc1ccc(-c2cnc3ccc(N4CC[C@H](N(C)C(=O)OC(C)C)C4)nn23)c(=O)n1C [(S)-isopropyl (1-(3-(1,6-dimethyl-2-oxo-1,2-dihydropyridin-3-yl)imidazo[1,2-b]pyridazin-6-yl)pyrrolidin-3-yl)(methyl)carbamate] | ≤ 100 nM
